Results from patent US20240366756A1, “COMBINATIONS AND USES THEREOF” (Incyte Corporation, priority 2011, published 2024).

System: MEC-1 cells
Test: Cytotoxicity/ADCC cell killing of MEC-1 cells with PBMCs (FACS, propidium iodide)
Type: cell-based, human
Conditions: for normalized specific killing: combination set to 1, Bendamustine 100 μg/ml, MOR00208 6.6 pM; for % dead cells: MOR00208 6.6 pm, BEN 100 μg/ml (48 h pre-incubation), E:T 30:1, 4 h, control RefMab33
Description: MEC-1 cells: chronic B-cell leukemia cell line DSMZ #ACC497; Cell Medium: Iscove's Modified Dulbecco's Medium (IMDM) with GlutaMAX™, Invitrogen, Cat No.: 31980-048, 20% FCS; PBMCs: RPMI1640, with stabile Glutamine, PAN Biotech GmbH, Cat No.: P04-13500 supplemented with 10% FCS; Biocoll: Biochrome AG CAT No.: L6115 LOT No.: 1050T; Bendamustine: Mundipharma LOT No.: 88018; FCS: PAN CAT No.: 3302-P282403 LOT No.: P282403; and RefmAb33 (anti-RSV) with same Fc region as MOR00208.
The cytotoxicity of MOR00208 and bendamustine alone and in combination was tested in MEC-1 cells. BEN is an alkylating agent, therefore, functions via direct cytoxicity in MEC-1 cells. MOR00208 targets CD19 and additionally functions via ADCC in killing MEC-1 cells. For the following groups MEC-1 cell killing was measured: BEN at 100 μg/ml; MOR00208 at 6.6 pm and the combination of MOR00208 at 6.6 pm and BEN at 100 μg/ml. […] The following were used as controls: RefmAb33, or PBMCs alone. In both the BEN group and MOR00208+BEN combination group, MEC-1 cells were pre-incubated with BEN 48 hours prior to the ADCC assay measurements. The MEC-1 cells were stained using 1 mg/ml Calcein AM then counted and adjusted to 2×10^5/ml. The PBMCs were counted and adjusted to 6×10^6/ml. The cell killing assays were done as follows: using 96 well plates, a 100 μl cell suspension of MEC-1 cells was added per well, then 100 μl cell suspension of PBMCs was added to each well resulting in an E:T ratio of 30:1. The antibodies were diluted to 1 μg/ml in medium. Cells were centrifuged and re-suspended. To the target:effector cell-pellet, 100 μl antibody solution or according control solution was added. The mixture was incubated for 4 h in CO2-incubator at 37° C. The cell killing measurements were taken as follows: the incubated cell solution (˜100 μl) was transferred into FACS tubes and 200 μl FACS buffer (DPBS+3% FCS) and 0.5 μl PI stock solution was added to each tube. FACS-Calibur was used. Dead MEC-1 cells were stained with propidium iodide.
The values represent % dead cells. Each experiment represents PBMCs from different donors. The controls used for each experiment was RefMab33.
The values shown in Table 2 are calculated as follows: 1) from the raw data (% dead cells) shown in Table 1, the background (controls) were subtracted, resulting in the specific killing for each treatment group; then 2) the specific killing values were normalized by setting the combination of MOR00208+BEN to 1. The averages of Table 2 are depicted in FIG. 5.
[…] (CI) calculations were completed in order to determine synergy of the combination of the exemplified anti-CD19 antibody and bendamustine as compared to MOR00208 and BEN alone. Such calculations are described in Ting-Chao Chou, Theoretical Basis, Experimental Design, and Computerized Simulation of Synergism and Antagonism in Drug Combination Studies, Pharmacol Rev 58:621-681 (2006), which is incorporated by reference in its entirety and Chou T C, Talalay P, Quantitative analysis of dose-effect relationships: the combined effects of multiple drugs or enzyme inhibitors. Adv Enzyme Regul 22:27-55 (1984), which is incorporated by reference in its entirety. The methods of Chou-Talalay are carried out using the CI-isobol method.
The median-effect equation models of the effect of an inhibitor (such as a drug) as Fa/Fu=(D/D50)^m, where D is the dose, Fa and Fu is the fraction of the system affected and unaffected by the dose D (Fa+Fu=1); D50 is the dose producing the median effect (e.g. IC50, ED50, LD50). The constant m determines the shape of the dose-effect curve. We used Excel Fit software to carry out a linear regression calculation to estimate the parameters m and D50.
The effects of the combination on MEC-1 cells is measured % cell death as described above.

## MOR00208: anti-CD19 antibody; variable domains shown in FIG. 3, heavy and light chain Fc regions in FIG. 4
Average of experiments 1-3
  normalized specific killing: 0.6
Experiment 1 (PBMC donor)
  % dead cells: 73.6%
Experiment 1, background subtracted
  normalized specific killing: 0.70
Experiment 2 (PBMC donor)
  % dead cells: 41.5%
Experiment 2, background subtracted
  normalized specific killing: 0.50
Experiment 3 (PBMC donor)
  % dead cells: 57.2%
Experiment 3, background subtracted
  normalized specific killing: 0.50
Concentration chosen as near or at the EC50, read-out: EC50 (MEC-1 cell killing)
  EC50: ~6.6 pM
Normalized specific killing, monotherapy vs. BEN + MOR00208 combination
  Bonferroni's Multiple Comparison Test Mean Diff.: −0.4321

B1: RefmAb33: antibody specific for RSV, used as isotype control, shares the same Fc region as MOR00208 (SEQ ID NO: 8, 9) (antibody)
heavy: QVTLRESGPALVKPTQTLTLTCTFSGFSLSTAGMSVGWIRQPPGKALEWLADIWWDDKKHYNPSLKDRLTISKDTSKNQVVLKVTNMDPADTATYYCARDMIFNFYFDVWGQGTTVTVSSASTKGPSVFPLAPSSKSTSGGTAALGCLVKDYFPEPVTVSWNSGALTSGVHTFPAVLQSSGLYSLSSVVTVPSSSLGTQTYICNVNHKPSNTKVDKKVEPKSCDKTHTCPPCPAPELLGGPDVFLFPPKPKDTLMISRTPEVTCVVVDVSHEDPEVQFNWYVDGVEVHNAKTKPREEQFNSTFRVVSVLTVVHQDWLNGKEYKCKVSNKALPAPEEKTISKTKGQPREPQVYTLPPSREEMTKNQVSLTCLVKGFYPSDIAVEWESNGQPENNYKTTPPMLDSDGSFFLYSKLTVDKSRWQQGNVFSCSVMHEALHNHYTQKSLSLSPGK
light: DIQMTQSPSTLSASVGDRVTITCSASSRVGYMHWYQQKPGKAPKLLIYDTSKLASGVPSRFSGSGSGTEFTLTISSLQPDDFATYYCFQGSGYPFTFGGGTKVEIKRTVAAPSVFIFPPSDEQLKSGTASVVCLLNNFYPREAKVQWKVDNALQSGNSQESVTEQDSKDSTYSLSSTLTLSKADYEKHKVYACEVTHQGLSSPVTKSFNRGEC
modifications: Heavy chain RefMab33; Light chain RefMab33
Experiment 1 (PBMC donor)
  % dead cells: 25.2%
Experiment 2 (PBMC donor)
  % dead cells: 18%
Experiment 3 (PBMC donor)
  % dead cells: 30.9%
